Reference: paper PMC11184559, “Identification and Validation of Compounds Targeting Leishmania major Leucyl-Aminopeptidase M17” (ACS Infectious Diseases, 2024)
Values joined by “and” are separate entries in the source; they are usually repeats but may differ in a detail not shown here. Identical values can stand only once. Like-named read-outs stand apart in the source and are kept apart here.

How the values were obtained:
rLmLAP = rLmLAP (Leishmania major, UniProt Q7KF27); experiment: RapidFire-MS aminopeptidase activity assay: inhibition of rLmLAP (LSTVIVR substrate); format: biochemical; conditions: for IC50: RapidFire-MS, 5 nM enzyme, 10 μM LSTVIVR, 20 min preincubation, 0.195-100 μM, mean ± standard error (n = 3)
rLmLAP, sequence (Q7KF27 entry or part of it): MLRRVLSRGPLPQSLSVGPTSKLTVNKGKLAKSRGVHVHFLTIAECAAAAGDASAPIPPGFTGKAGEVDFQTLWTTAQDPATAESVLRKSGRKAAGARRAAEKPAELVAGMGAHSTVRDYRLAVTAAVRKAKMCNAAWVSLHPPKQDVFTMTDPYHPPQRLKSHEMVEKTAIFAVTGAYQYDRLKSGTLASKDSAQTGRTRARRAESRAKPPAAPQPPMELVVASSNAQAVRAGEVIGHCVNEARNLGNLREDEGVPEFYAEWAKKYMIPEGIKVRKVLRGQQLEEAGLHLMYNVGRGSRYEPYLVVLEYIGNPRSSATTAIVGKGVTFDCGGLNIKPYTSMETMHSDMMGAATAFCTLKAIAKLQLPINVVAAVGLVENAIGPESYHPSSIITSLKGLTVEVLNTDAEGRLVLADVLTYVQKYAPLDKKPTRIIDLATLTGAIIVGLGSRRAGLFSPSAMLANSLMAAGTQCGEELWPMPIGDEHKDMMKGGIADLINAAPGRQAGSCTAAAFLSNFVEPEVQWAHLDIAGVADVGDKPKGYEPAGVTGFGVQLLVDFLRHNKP
Method: Assays were carried out as previously described,[24] with some differences indicated below. The reaction mix consisted of 0 nM (control) and 30 nM rLmLAP in 1× PBS, pH 7.0, 0.005% (v/v) NP-40, plus 7.5 μL of LSTVIVR substrate peptide in the same buffer. For product quantification, the peak areas of the LSTVIVR peptide were integrated with respect to the internal standard LSTVIVR* peptide. The C-terminal arginine was chosen because this amino acid is amenable to isotopic labeling.[45]
rLmLAP was assayed at 5 nM with 10 μM (1× appKM) of LSTVIVR substrate peptide. The enzyme was preincubated with bestatin or DMSO for 20 min. Bestatin was prepared at 10 concentrations in DMSO, covering the range from 0.39 to 100 μM. […] The remaining experimental conditions were maintained, as described above.
A high-throughput screen was conducted against rLmLAP using 3,383 compounds with known protease inhibitor motifs. The compounds were dispensed onto plates using an ECHO 550 acoustic dispenser (Labcyte, Sunnyvale, CA). The enzyme was assayed at 5 nM with 10 μM (1× appKM) LSTVIVR substrate for 60 min. Before adding the substrate, the enzyme was preincubated with 45 nL of the compounds or DMSO for 20 min. Compounds, dissolved in DMSO, were tested at 30 μM. […] No replicates were performed for each inhibitor in this experiment. The remaining experimental conditions were kept constant as described above. The ActivityBase program from IDBS provider (https://www.idbs.com) was used to process and analyze the data. Selection criteria for potential inhibitors in this screen required an inhibition percentage greater than the mean (calculated from the inhibition percentages of all the inhibitors) plus three standard deviations (SD). All compounds were purchased commercially and are >95% pure by HPLC.
To obtain IC50 data for screen-detected rLmLAP inhibitors at a single concentration, ten-point concentration–response curves were generated for selected inhibitors showing greater than mean ±3 SD inhibition. The curves were prepared in 384-well plates with a maximum concentration of 100 μM and 1:2 serial dilutions in DMSO (0.195–100 μM) using an ECHO 550 acoustic dispenser. All other experimental conditions were as described above for RapidFire-MS optimization. Three replicates of each concentration of inhibitor were evaluated. The IC50 value was calculated by nonlinear fitting of a four-parameter logistic function to the experimental data. Curve fitting and IC50 calculations were performed using IDBS ActivityBase XE version 9.2.0.106. Inhibitory activity was determined using the peak area ratio, calculated as the reaction product (STVIVR) divided by its internal standard (*LSTVIVR). The peak area ratio of the reaction without enzyme was defined as 100% inhibitory activity, and that of the complete reaction mixture was defined as 0% inhibitory activity. At least three replicates were generated for each hit compound.

[1] = system: parental (WT) L. major promastigotes; experiment: Drug sensitivity assay (resazurin), parental L. major promastigotes; format: cell-based
Method: L. major promastigotes were cultured in HOMEM (Gibco) supplemented with 10% heat inactivated FBS at 28 °C.
(§1) L. major promastigotes were seeded in 96-well plates at 5 × 10^4/mL, exposed to 2-fold serial dilutions of test compounds, and incubated at 28 °C for 72 h. Resazurin was, then, added to each well to a final concentration of 50 μM, and fluorescence was measured after 2–3 h (excitation of 528 nm and emission of 590 nm). The EC50 was calculated by processing the collected data by GRAFIT (version 5.0.4, Erithacus Software) and fitting them to the following two-parameter equation: [drawing 6] 6 where [I] is the inhibitor concentration, and m is the slope. Experiments were performed on at least three independent biological replicates. Data are presented as the weighted mean ± standard deviation.

[2] = system: LmLAP-overexpressing L. major promastigotes; experiment: Drug sensitivity assay (resazurin), LmLAP-overexpressing L. major promastigotes; format: cell-based; conditions: Leishmania major
Method: The basic L. major cytosolic leucyl aminopeptidase gene (LmjF.23.0950) was synthesized (GeneArt, Invitrogen) and cloned into the overexpression vector pIRT1_SAT by using BglII restriction sites. The pIRT1_SAT_LmLAP construct was sequenced to confirm correct sequence. Mid log phase L. major cells (1 × 10^7 cells) were transfected with 10 μg of heat-sterilized DNA using the Human T-Cell Nucleofector kit and AMAXA Nucleofector electroporator (program V-033). After a 24 h recovery period, nourseothricin was added to cultures to a final concentration of 100 μg/mL.
as §1

[3] = system: LmjF.11.0630 (metallo-peptidase, Clan MF, Family M17); experiment: Isothermal TPP (iTPP) thermal stabilization, LmjF.11.0630; format: binding, Leishmania major; conditions: L. major promastigote lysate, 47 °C, compound at 10× EC50 vs DMSO
Method: Cell lysates were obtained as detailed above. Isothermal TPP assays were performed as previously described[29] but here lysates were incubated at two temperatures: 28 and 47 °C. The first temperature (28 °C) acts as a control temperature at which the protein levels are not altered by the presence of the test compound. The second temperature (47 °C) is the Leishmania spp. median Tm (melting temperature or temperature 50%) according to our interim data. […] These samples were aliquoted and submitted to a temperature shock at the designated temperature for 3 min, then 3 min at room temperature, and finally 3 min on ice. The soluble part was isolated by ultracentrifugation (100,000g, 20 min, 4 °C).
All aspects of sample processing, TMT-labeling, fractionation by HPLC into 10 fractions, LC-MS/MS, and protein identification and quantitation were described previously.[28],[68] Proteins with less than three peptides and those with increased stability at 28 °C were disregarded.
Proteins were identified by searching the MS and MS/MS data for the peptides against L. major strain Friedlin (TriTryp version 61, tritrypdb.org) using MaxQuant (http://maxquant.org/, version 2.1.4.0). All proteomics data sets have been deposited to the ProteomeXchange Consortium via the PRIDE[69] partner repository with the identifier PXD00000. Data were analyzed with Perseus v 1.6.15.[70] The reporter intensities of each protein were extracted and normalized to the control temperature reporter intensity (28 °C), then these normalized values were used to calculate the log2 transformed fold-changes (FC) of […] samples. Proteins stabilized (log2 FC > 1 in both replicates) were selected as putative hits.

[4] = Leishmania major; value of the specific curve shown in Figure 4; read-out: EC50 (WT), representative curve
[5] = 72 h, read-out: EC50 (weighted mean), LmLAP-overexpressing (LAP-OE) L. major promastigotes
[6] = read-out: EC50 (LAP-OE), representative curve

| SMILES | inhibition at 100 µM (rLmLAP) [%] | IC50 (rLmLAP) | EC50 ([1]; Leishmania major, 72 h, resazurin; weighted mean ± SD (n = 5); read-out: EC50 (weighted mean), parental (WT) L. major promastigotes) [µM] | EC50 [1, 4] [µM] | EC50 [2, 5] [µM] | EC50 [2, 6] [µM] | Enrichment (log2) replica A, LmjF.11.0630 [3] [log2] | Enrichment (log2) replica B, LmjF.11.0630 [3] [log2] | Experimental ΔΔG (rLmLAP; DDD00097924 relative to DDD00057570) [kcal/mol] | EC50 ([1]; Leishmania major; 72 h, resazurin; weighted mean ± SD (n = 5); read-out: EC50 (weighted mean), parental (WT) L. major promastigotes) [µM] |
| --- | --- | --- | --- | --- | --- | --- | --- | --- | --- | --- |
| COc1ccc(Cc2c(N)nc(-c3ccccn3)nc2N)cc1 [DDD00057570] | 99 | 3.3 µM and 3 µM | 1.8 ± 0.2 | 1.1 ± 0.2 | 7 ± 1 | 6.9 ± 1 | 1.47 | 1.34 | – | – |
| O=C(c1cccs1)N(CCCn1ccnc1)c1nc2ccccc2s1 [DDD00097924] | 75 | 30.9 µM and 31 µM | – | 1.83 ± 0.2 | 11 ± 1 | 7.3 ± 1.4 | 2.19 | 1.99 | 1.3 | 3 ± 0.2 |
